Test results reported in the supplement of paper PMC10307832.

Assays:
Experiment in all cases: relative viability (nuclei count vs DMSO), 5 days (fraction); higher = more cells survive
Bortezomib + Luminespib = compound: CC(C)C[C@H](NC(=O)[C@H](Cc1ccccc1)NC(=O)c1cnccn1)B(O)O [Bortezomib] + CCNC(=O)c1noc(-c2cc(C(C)C)c(O)cc2O)c1-c1ccc(CN2CCOCC2)cc1 [Luminespib] (partner 0.01 µM)
In short: (§1)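 Dosing by pin tool came one day after lung cancer cell lines were seeded in 1536-well plates, using either one drug or a fixed anchor-drug dose plus five library-drug doses (not always all listed) in √10 steps. After 5 days, nuclei were counted on 4× images. Relative viability is treated-well nuclei count divided by vehicle-well nuclei count, and values are medians of duplicate plates.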

[1] = compound: CC1=CC(=NN1)NC2=CC(=NC(=N2)/C=C/C3=CC=CC=C3)N4CCN(CC4)C + CCNC(=O)c1noc(-c2cc(C(C)C)c(O)cc2O)c1-c1ccc(CN2CCOCC2)cc1 [Luminespib] (partner 0.01 µM)
In short: as §1

[2] = compound: CC1=CC(=NN1)NC2=CC(=NC(=N2)/C=C/C3=CC=CC=C3)N4CCN(CC4)C + Cc1cc(Nc2cc(N3CCN(C)CC3)nc(Sc3ccc(NC(=O)C4CC4)cc3)n2)n[nH]1 [Tozasertib] (partner 0.1 µM)
In short: as §1

[3] = compound: CC1=CC(=NN1)NC2=CC(=NC(=N2)/C=C/C3=CC=CC=C3)N4CCN(CC4)C + NC(=O)Nc1cc(-c2cccc(F)c2)sc1C(=O)N[C@H]1CCCNC1 [AZD7762] (partner 0.2 µM)
In short: as §1

| Cell Line | relative viability (Bortezomib + Luminespib; first compound 0.0002 µM) | relative viability (Bortezomib + Luminespib; first compound 0.000632 µM) | relative viability (Bortezomib + Luminespib; first compound 0.002 µM) | relative viability (Bortezomib + Luminespib; first compound 0.006325 µM) | relative viability (Bortezomib + Luminespib; first compound 0.02 µM) | relative viability ([1]; first compound 0.08 µM) | relative viability ([1]; first compound 0.253 µM) | relative viability ([1]; first compound 0.8 µM) | relative viability ([1]; first compound 2.53 µM) | relative viability ([1]; first compound 8 µM) | relative viability ([2]; first compound 0.08 µM) | relative viability ([2]; first compound 0.253 µM) | relative viability ([2]; first compound 0.8 µM) | relative viability ([2]; first compound 2.53 µM) | relative viability ([2]; first compound 8 µM) | relative viability ([3]; first compound 0.08 µM) | relative viability ([3]; first compound 0.253 µM) | relative viability ([3]; first compound 0.8 µM) | relative viability ([3]; first compound 2.53 µM) | relative viability ([3]; first compound 8 µM) |
| --- | --- | --- | --- | --- | --- | --- | --- | --- | --- | --- | --- | --- | --- | --- | --- | --- | --- | --- | --- | --- |
| EKVX | 0.833 | 0.827 | 0.89 | 0.646 | 0.113 | 0.852 | 0.981 | 0.984 | 0.758 | 0.261 | 0.396 | 0.451 | 0.383 | 0.196 | 0.104 | 0.649 | 0.667 | 0.753 | 0.413 | 0.122 |
| EMC-BAC-2 | 1.21 | 1.11 | 1.17 | 0.441 | 0.208 | 1.2 | 1.21 | 1.15 | 0.733 | 0.271 | 0.282 | 0.249 | 0.254 | 0.234 | 0.149 | 1.11 | 1.22 | 1.1 | 0.654 | 0.354 |
| HARA | 0.718 | 0.77 | 0.607 | 0.0345 | 0.0465 | 0.699 | 0.791 | 0.348 | 0.139 | 0.043 | 0.111 | 0.108 | 0.11 | 0.0787 | 0.0585 | 0.386 | 0.351 | 0.412 | 0.193 | 0.154 |
| LU99A | 0.227 | 0.178 | 0.231 | 0.24 | 0.184 | 0.254 | 0.235 | 0.192 | 0.197 | 0.161 | 0.325 | 0.259 | 0.262 | 0.175 | 0.141 | 0.298 | 0.376 | 0.252 | 0.14 | 0.0858 |
| LK-2 | 0.182 | 0.186 | 0.238 | 0.182 | 0.172 | 0.174 | 0.175 | 0.226 | 0.16 | 0.151 | 0.187 | 0.153 | 0.165 | 0.171 | 0.171 | 0.245 | 0.364 | 0.323 | 0.0834 | 0.0556 |
| NCI-H441 | 0.331 | 0.341 | 0.236 | 0.159 | 0.168 | 0.471 | 0.466 | 0.409 | 0.31 | 0.142 | 0.642 | 0.592 | 0.599 | 0.287 | 0.189 | 1.17 | 1.06 | 1.1 | 0.728 | 0.152 |
| NCI-H23 | 0.224 | 0.208 | 0.208 | 0.18 | 0.169 | 0.183 | 0.206 | 0.197 | 0.212 | 0.205 | 0.389 | 0.382 | 0.239 | 0.212 | 0.141 | 0.246 | 0.186 | 0.23 | 0.094 | 0.101 |
| NCI-H647 | 0.198 | 0.294 | 0.136 | 0.0557 | 0.0467 | 0.308 | 0.267 | 0.104 | 0.172 | 0.0506 | 0.236 | 0.202 | 0.257 | 0.123 | 0.108 | 0.328 | 0.598 | 0.499 | 0.103 | 0.0452 |
| 201T | 1.03 | 1.01 | 1.09 | 0.745 | 0.215 | 1.01 | 1.04 | 1.01 | 0.947 | 0.266 | 0.973 | 0.916 | 0.746 | 0.388 | 0.25 | 0.667 | 0.526 | 0.628 | 0.538 | 0.53 |
| NCI-H1734 | 0.181 | 0.186 | 0.178 | 0.129 | 0.101 | 0.178 | 0.236 | 0.163 | 0.145 | 0.109 | 0.256 | 0.238 | 0.239 | 0.227 | 0.157 | 0.524 | 0.508 | 0.537 | 0.184 | 0.12 |
| NCI-H596 | 0.942 | 0.73 | 0.609 | 0.244 | 0.2 | 1.04 | 0.927 | 0.777 | 0.402 | 0.2 | 0.783 | 1.01 | 0.896 | 0.508 | 0.244 | 1.07 | 1.14 | 1.04 | 0.583 | 0.279 |
